Measurements published in patent publication US11104648B2, “Pyrazole derivative” (Zhejiang Research Institute of Chemical Industry Co., Ltd., priority 2018, dated 2021).
Read-outs that look alike come from different tables or passages of the source.

How the values were obtained:
Format in all cases: in vivo
[1] = system: adult Tetranychus cinnabarinus; test: Activity assay of adult Tetranychus cinnabarinus (whole-plant spray on bean seedlings); settings: 48 h, read-out: adult mite-killing activity; for pest or weed control at 1.25 µg/mL: concentration 1.25 mg/L
In short: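 Whole plants sprayed after adult mite inoculation and initial census, using compound dissolved in DMF and made up with 1‰ Tween 80 water (DMF not above 10%). Mortality derived from survivor counts at 48 h after treatment. Each treatment run in triplicate.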

[2] = system: Eggs of Tetranychus Cinnabarinus; test: Activity assay of eggs of Tetranychus cinnabarinus (spray method, ovicidal); settings: Tetranychus cinnabarinus, read-out: ovicidal activity; for pest or weed control at 2 µg/mL: concentration 2 mg/L
In short: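 Ovicidal spray test: compound dissolved in DMF, diluted with 1‰ Tween 80 (DMF ≤10%), sprayed on eggs laid during 24 h by females on broad bean leaves. Culture at 26±2° C, 70–80% RH, 16 h photoperiod; non-hatched eggs scored as dead when blank control hatched; three repeats.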

[3] = system: Tetranychus cinnabarinus Nymphs; test: Activity assay of Tetranychus cinnabarinus nymphs (spray on broad bean leaves)
In short: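 Mortality, judged as no response to gentle touch, was scored 48 h after spraying Tetranychus cinnabarinus nymphs on broad bean leaves (eggs from females removed after 24 h). Test solutions: DMF-dissolved compound, ≤10% DMF, in 1‰ Tween 80; 26±2° C., 70%–80% RH, 16 h light; triplicate, blank control.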

[4] = concentration 5 mg/L, spray, non-incubated eggs counted as dead
[5] = 48 h, concentration 2.5 mg/L, read-out: nymph-killing activity
[6] = 48 h, read-out: nymph-killing activity
[7] = concentration 2.5 mg/L, 48 h, read-out: nymph-killing activity
[8] = 48 h, concentration 2 mg/L, read-out: nymph-killing activity

SMILES	pest or weed control at 2.5 µg/mL ([1]; concentration 2.5 mg/L) [%]	pest or weed control at 5 µg/mL [2, 4] [%]	pest or weed control at 2.5 µg/mL [3, 5] [%]	other results
CCn1nc(C)c(C)c1/C(OCOC(=O)C1CC1)=C(\C#N)c1ccc(C(C)(C)C)cc1 [Compound 384]	≥ 90	≥ 90	≥ 95	–
CCn1nc(C)c(C)c1/C(OCOC(=O)CSC)=C(\C#N)c1ccc(C(C)(C)C)cc1 [Compound 385]	≥ 90	≥ 90	≥ 95	–
CCn1nc(C)c(C)c1/C(OCOC(=O)C1CCCCC1)=C(\C#N)c1ccc(C(C)(C)C)cc1 [Compound 386]	≥ 90	≥ 90	≥ 95	–
CCn1nc(C)c(C)c1/C(OCOC(=O)CF)=C(\C#N)c1ccc(C(C)(C)C)cc1 [Compound 387]	–	–	–	pest or weed control at 2.5 µg/mL [1]: ≥ 90%; pest or weed control at 5 µg/mL [2]: ≥ 90%; pest or weed control at 2.5 µg/mL [3, 6]: ≥ 95%
CCn1nc(C)c(C)c1/C(OCOC(=O)C(F)(F)F)=C(\C#N)c1ccc(C(C)(C)C)cc1 [Compound 388]	≥ 90	≥ 90	≥ 95	–
CCn1nc(C)c(C)c1/C(OCOC(=O)c1ccccc1)=C(\C#N)c1ccc(C(C)(C)C)cc1 [Compound 389]	≥ 90	≥ 90	≥ 95	–
CCn1nc(C)c(C)c1/C(OCOC(=O)Cc1ccccc1)=C(\C#N)c1ccc(C(C)(C)C)cc1 [Compound 390]	≥ 90	≥ 90	–	pest or weed control at 2.5 µg/mL [3, 7]: ≥ 95%
CCn1nc(C)c(C)c1/C(OCOC(=O)C(C)(C)CC)=C(\C#N)c1ccc(C(C)(C)C)cc1 [Compound 391]	≥ 90	≥ 90	≥ 95	–
C=CC(=O)OCO/C(=C(/C#N)c1ccc(C(C)(C)C)cc1)c1c(C)c(C)nn1CC [Compound 392]	≥ 90	≥ 90	≥ 95	–
CCn1nc(C)c(C)c1/C(OC(C)OC(C)=O)=C(\C#N)c1ccc(C(C)(C)C)cc1 (stereo not drawn) [Compound 401]	≥ 90	≥ 90	≥ 95	pest or weed control at 1.25 µg/mL [1]: ≥ 90%; pest or weed control at 2 µg/mL ([2]; spray): ≥ 90%; pest or weed control at 2 µg/mL [3, 8]: ≥ 90%
CCC(=O)OC(C)O/C(=C(/C#N)c1ccc(C(C)(C)C)cc1)c1c(C)c(C)nn1CC (stereo not drawn) [Compound 402]	≥ 90	≥ 90	≥ 95	pest or weed control at 1.25 µg/mL [1]: ≥ 90%; pest or weed control at 2 µg/mL ([2]; spray): ≥ 90%; pest or weed control at 2 µg/mL [3, 8]: ≥ 90%
CCCC(=O)OC(C)O/C(=C(/C#N)c1ccc(C(C)(C)C)cc1)c1c(C)c(C)nn1CC (stereo not drawn) [Compound 403]	≥ 90	≥ 90	≥ 95	–
CCn1nc(C)c(C)c1/C(OC(C)OC(=O)C(C)C)=C(\C#N)c1ccc(C(C)(C)C)cc1 (stereo not drawn) [Compound 404]	≥ 90	≥ 90	≥ 95	–
CCn1nc(C)c(C)c1/C(OC(C)OC(=O)C(C)(C)C)=C(\C#N)c1ccc(C(C)(C)C)cc1 (stereo not drawn) [Compound 405]	≥ 90	≥ 90	≥ 95	pest or weed control at 1.25 µg/mL [1]: ≥ 90%; pest or weed control at 2 µg/mL ([2]; spray): ≥ 90%; pest or weed control at 2 µg/mL [3, 8]: ≥ 90%
CCCCC(=O)OC(C)O/C(=C(/C#N)c1ccc(C(C)(C)C)cc1)c1c(C)c(C)nn1CC (stereo not drawn) [Compound 406]	≥ 90	≥ 90	≥ 95	–
CCn1nc(C)c(C)c1/C(OC(C)OC(=O)CC(C)C)=C(\C#N)c1ccc(C(C)(C)C)cc1 (stereo not drawn) [Compound 407]	≥ 90	≥ 90	≥ 95	–
CCn1nc(C)c(C)c1/C(OC(C)OC(=O)COC)=C(\C#N)c1ccc(C(C)(C)C)cc1 (stereo not drawn) [Compound 408]	≥ 90	≥ 90	≥ 95	–
CCn1nc(C)c(C)c1/C(OC(C)OC(=O)C1CC1)=C(\C#N)c1ccc(C(C)(C)C)cc1 (stereo not drawn) [Compound 409]	≥ 90	≥ 90	≥ 95	pest or weed control at 1.25 µg/mL [1]: ≥ 90%; pest or weed control at 2 µg/mL ([2]; spray): ≥ 90%; pest or weed control at 2 µg/mL [3, 8]: ≥ 90%
CCn1nc(C)c(C)c1/C(OC(C)OC(=O)CSC)=C(\C#N)c1ccc(C(C)(C)C)cc1 (stereo not drawn) [Compound 410]	≥ 90	≥ 90	≥ 95	–
CCn1nc(C)c(C)c1/C(OC(C)OC(=O)C1CCCCC1)=C(\C#N)c1ccc(C(C)(C)C)cc1 (stereo not drawn) [Compound 411]	≥ 90	≥ 90	≥ 95	–

SMILES	pest or weed control at 2.5 µg/mL ([1]; concentration 2.5 mg/L) [%]	pest or weed control at 5 µg/mL [2, 4] [%]	pest or weed control at 2.5 µg/mL [3, 5] [%]	other results
CCn1nc(C)c(C)c1/C(OC(C)OC(=O)CF)=C(\C#N)c1ccc(C(C)(C)C)cc1 (stereo not drawn) [Compound 412]	–	–	–	pest or weed control at 2.5 µg/mL [1]: ≥ 90%; pest or weed control at 5 µg/mL [2]: ≥ 90%; pest or weed control at 2.5 µg/mL [3, 6]: ≥ 95%
CCn1nc(C)c(C)c1/C(OC(C)OC(=O)C(F)(F)F)=C(\C#N)c1ccc(C(C)(C)C)cc1 (stereo not drawn) [Compound 413]	≥ 90	≥ 90	≥ 95	–
CCn1nc(C)c(C)c1/C(OC(C)OC(=O)c1ccccc1)=C(\C#N)c1ccc(C(C)(C)C)cc1 (stereo not drawn) [Compound 414]	≥ 90	≥ 90	≥ 95	–
CCn1nc(C)c(C)c1/C(OC(C)OC(=O)Cc1ccccc1)=C(\C#N)c1ccc(C(C)(C)C)cc1 (stereo not drawn) [Compound 415]	≥ 90	≥ 90	–	pest or weed control at 2.5 µg/mL [3, 7]: ≥ 95%
CCn1nc(C)c(C)c1/C(OC(C)OC(=O)C(C)(C)CC)=C(\C#N)c1ccc(C(C)(C)C)cc1 (stereo not drawn) [Compound 416]	≥ 90	≥ 90	≥ 95	–
C=CC(=O)OC(C)O/C(=C(/C#N)c1ccc(C(C)(C)C)cc1)c1c(C)c(C)nn1CC (stereo not drawn) [Compound 417]	≥ 90	≥ 90	≥ 95	–
COC(=O)OCO/C(=C(/C#N)c1ccc(C(C)(C)C)cc1)c1cc(C)nn1C [Compound 451]	≥ 90	≥ 90	≥ 95	–
CCOC(=O)OCO/C(=C(/C#N)c1ccc(C(C)(C)C)cc1)c1cc(C)nn1C [Compound 452]	≥ 90	≥ 90	≥ 95	–
Cc1cc(/C(OCOC(=O)OC(C)C)=C(\C#N)c2ccc(C(C)(C)C)cc2)n(C)n1 [Compound 454]	≥ 90	≥ 90	≥ 95	–
CCCCOC(=O)OCO/C(=C(/C#N)c1ccc(C(C)(C)C)cc1)c1cc(C)nn1C [Compound 456]	≥ 90	≥ 90	≥ 95	–
Cc1cc(/C(OCOC(=O)OCC(C)C)=C(\C#N)c2ccc(C(C)(C)C)cc2)n(C)n1 [Compound 457]	≥ 90	≥ 90	≥ 95	–
Cc1cc(/C(OCOC(=O)OCCC(C)C)=C(\C#N)c2ccc(C(C)(C)C)cc2)n(C)n1 [Compound 458]	≥ 90	≥ 90	≥ 95	–
CCCCCOC(=O)OCO/C(=C(/C#N)c1ccc(C(C)(C)C)cc1)c1cc(C)nn1C [Compound 460]	≥ 90	≥ 90	≥ 95	–
Cc1cc(/C(OCOC(=O)OCC(F)(F)F)=C(\C#N)c2ccc(C(C)(C)C)cc2)n(C)n1 [Compound 467]	≥ 90	≥ 90	≥ 95	–
COCCOC(=O)OCO/C(=C(/C#N)c1ccc(C(C)(C)C)cc1)c1cc(C)nn1C [Compound 468]	≥ 90	≥ 90	≥ 95	–
CSCCOC(=O)OCO/C(=C(/C#N)c1ccc(C(C)(C)C)cc1)c1cc(C)nn1C [Compound 471]	≥ 90	≥ 90	≥ 95	–
C=CCOC(=O)OCO/C(=C(/C#N)c1ccc(C(C)(C)C)cc1)c1cc(C)nn1C [Compound 474]	≥ 90	≥ 90	≥ 95	–
C#CCOC(=O)OCO/C(=C(/C#N)c1ccc(C(C)(C)C)cc1)c1cc(C)nn1C [Compound 476]	≥ 90	≥ 90	≥ 95	–
COC(=O)COC(=O)OCO/C(=C(/C#N)c1ccc(C(C)(C)C)cc1)c1cc(C)nn1C [Compound 477]	≥ 90	≥ 90	≥ 95	–
CCSC(=O)OCO/C(=C(/C#N)c1ccc(C(C)(C)C)cc1)c1cc(C)nn1C [Compound 480]	≥ 90	≥ 90	≥ 95	–
